Experimental findings from ChEMBL document CHEMBL1201862, “PubChem BioAssay data set” (2004) are described below.

Test systems include UACC-257; TK-10; OVCAR-8; ACHN; 786-0; IGROV-1; NCI-H522; NCI/ADR-RES; MCF7; HL-60; Malme-3M; LOX IMVI; SNB-75; HOP-62; NCI-H226; KM12; PC-3; A498; U-251; HOP-92.
Common to all, as to assay: DTP human tumour cell line panel, 48 h

Where a name gives a salt, the structure may show the parent alone.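 Each compound was tested at five concentrations against cells in 96-well plates for 48 hours. At the GI50, growth is halved.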 The source made the active and inactive calls. Rule as the data show it: active = GI50 up to about 1.1 µM and inactive = higher.

On to `O=C(O)c1nn[nH]c1Cl`, for which the GI50 in the experiment with UACC-257, in the experiment on TK-10, in the experiment on OVCAR-8, with ACHN, in the experiment with 786-0 and in the experiment with IGROV-1 was > 100 µM (inactive) in each case. In addition, the GI50 with NCI-H522, in the experiment with NCI/ADR-RES, with MCF7, in the experiment on HL-60, in the experiment on Malme-3M and in the experiment with LOX IMVI was > 100 µM (inactive) each time. Moreover, the GI50 in the experiment with SNB-75, in the experiment with HOP-62, with NCI-H226, with KM12, in the experiment with PC-3 and in the experiment on A498 was > 100 µM (inactive) each time. The GI50 in the experiment on U-251 was > 100 µM (inactive).

For `COc1ccc(-c2nc(-c3cnccn3)n(C3OC(CO)C(O)C3O)n2)cc1` (centres undefined), the GI50 in the experiment with UACC-257, with TK-10, in the experiment on OVCAR-8, with ACHN, in the experiment on HOP-92 and in the experiment with 786-0 was > 10 µM (inactive) throughout. Moreover, the GI50 in the experiment with NCI-H522, in the experiment on NCI/ADR-RES, in the experiment on MCF7, with HL-60, in the experiment on Malme-3M and in the experiment on LOX IMVI was > 10 µM (inactive) each time. In addition, the GI50 with SNB-75, in the experiment on NCI-H226, in the experiment on KM12, in the experiment with PC-3 and with U-251 was > 10 µM (inactive) in each case.

In the case of `COc1cc(-c2ccccc2)cn2c1nc1ccccc12`, the GI50 in the experiment on UACC-257 is 22.7 µM (inactive); in the experiment on OVCAR-8, 24.8 µM (inactive); in the experiment on ACHN, 20 µM (inactive); with HOP-92, 14.5 µM (inactive); in the experiment with 786-0 it was 15.7 µM (inactive); in the experiment on IGROV-1, 25.2 µM (inactive). Besides, the GI50 in the experiment on NCI-H522 was 16.5 µM (inactive); with NCI/ADR-RES it was 22.8 µM (inactive); in the experiment with MCF7, 17.1 µM (inactive); in the experiment with HL-60, 15.6 µM (inactive); in the experiment with Malme-3M, 20.2 µM (inactive); in the experiment with LOX IMVI, 22.3 µM (inactive). Also, the GI50 in the experiment with SNB-75 was 17.6 µM (inactive); with HOP-62, 19.9 µM (inactive); in the experiment on NCI-H226 it was 17.5 µM (inactive); in the experiment on KM12 it was 17.9 µM (inactive); with PC-3 it was 18.8 µM (inactive); with U-251, 20 µM (inactive).

As to `COc1ccc(/C=C2\N=C(c3ccccc3)OC2=O)cc1OC(C)=O`, the GI50 in the experiment with UACC-257 is > 100 µM (inactive); in the experiment on TK-10, > 100 µM (inactive); in the experiment on OVCAR-8, 50.4 µM (inactive); with ACHN, 33.6 µM (inactive); in the experiment on HOP-92, 54.1 µM (inactive); in the experiment with 786-0 it was 56 µM (inactive). The GI50 in the experiment on IGROV-1 is 82.8 µM (inactive); with NCI/ADR-RES, > 100 µM (inactive); with MCF7, 53.2 µM (inactive); in the experiment on HL-60, 41.1 µM (inactive); with Malme-3M, 13.5 µM (inactive); in the experiment on LOX IMVI, 51.3 µM (inactive). Moreover, the GI50 with SNB-75 is 52.5 µM (inactive); with HOP-62, 94.2 µM (inactive); in the experiment with NCI-H226, > 100 µM (inactive); in the experiment with PC-3 it was 31.1 µM (inactive); with A498, > 100 µM (inactive); in the experiment on U-251, 39.8 µM (inactive).

On to `Cc1cccc(NC(=S)Nc2ccc(Cl)cc2)n1`, for which the GI50 with UACC-257, with TK-10, in the experiment with OVCAR-8, in the experiment on ACHN, in the experiment on HOP-92 and in the experiment on 786-0 was > 100 µM (inactive) in each case. Moreover, the GI50 in the experiment on IGROV-1, in the experiment on NCI/ADR-RES, with MCF7, in the experiment with HL-60, in the experiment on LOX IMVI and in the experiment with SNB-75 was > 100 µM (inactive) each time. Moreover, the GI50 was > 100 µM (inactive) in the experiment with HOP-62; > 100 µM (inactive) in the experiment with NCI-H226; 3.1 µM (inactive) in the experiment on KM12; > 100 µM (inactive) in the experiment on PC-3; > 100 µM (inactive) with A498; > 100 µM (inactive) with U-251.

In the case of `CC(SC(=S)N1CCCC1)C(=O)Nc1nnc(-c2ccc(Cl)cc2)o1` (centres undefined), the GI50 was 40.4 µM (inactive) in the experiment on UACC-257; 50.4 µM (inactive) in the experiment on TK-10; 40.1 µM (inactive) in the experiment with OVCAR-8; 33 µM (inactive) with ACHN; 65.8 µM (inactive) with HOP-92; 14.1 µM (inactive) with 786-0. Moreover, the GI50 in the experiment on IGROV-1 is 32 µM (inactive); in the experiment with NCI/ADR-RES, 22.8 µM (inactive); in the experiment on MCF7 it was 33.7 µM (inactive); in the experiment with HL-60, < 0.01 µM (active); with Malme-3M, 23.8 µM (inactive); in the experiment with LOX IMVI, 18.7 µM (inactive). Besides, the GI50 was 45.9 µM (inactive) in the experiment on SNB-75; 34.1 µM (inactive) in the experiment on HOP-62; 40.3 µM (inactive) in the experiment on NCI-H226; 35.6 µM (inactive) in the experiment with PC-3; 34 µM (inactive) in the experiment on A498; 29.9 µM (inactive) with U-251.

As to `COC(=O)c1cc(S(=O)(=O)NC2=NNC(C)CN2)c(S)cc1Cl` (centres undefined), the GI50 was > 100 µM (inactive) with UACC-257; > 100 µM (inactive) with TK-10; 34.8 µM (inactive) in the experiment on OVCAR-8; > 100 µM (inactive) in the experiment with ACHN; 56.1 µM (inactive) with 786-0; 29.6 µM (inactive) in the experiment on IGROV-1. The GI50 was 19.5 µM (inactive) in the experiment on NCI-H522; 39.8 µM (inactive) in the experiment with NCI/ADR-RES; 42 µM (inactive) with MCF7; > 100 µM (inactive) with HL-60; 24 µM (inactive) in the experiment with Malme-3M; 37.5 µM (inactive) in the experiment on LOX IMVI. Besides, the GI50 is 24.7 µM (inactive) in the experiment on SNB-75; > 100 µM (inactive) in the experiment on HOP-62; 40.4 µM (inactive) with KM12; 42.8 µM (inactive) in the experiment on PC-3; 34.5 µM (inactive) in the experiment on A498; 37.4 µM (inactive) in the experiment with U-251.

As to `N=C(N)c1ccc(C(NC(=O)CNS(=O)(=O)c2ccc3ccccc3c2)P(=O)(Oc2ccccc2)Oc2ccccc2)cc1` (centres undefined), the GI50 with UACC-257 was > 100 µM (inactive); in the experiment on OVCAR-8, > 100 µM (inactive); in the experiment with ACHN, > 100 µM (inactive); with HOP-92 it was 29.6 µM (inactive); in the experiment on 786-0, 36.8 µM (inactive); in the experiment with IGROV-1, 31.8 µM (inactive). Also, the GI50 was 41.2 µM (inactive) in the experiment on NCI-H522; 69.5 µM (inactive) with NCI/ADR-RES; 54 µM (inactive) in the experiment with MCF7; 14.2 µM (inactive) in the experiment on HL-60; 68.1 µM (inactive) in the experiment on Malme-3M; 28.1 µM (inactive) in the experiment on LOX IMVI. In addition, the GI50 in the experiment with SNB-75 is 27 µM (inactive); in the experiment with HOP-62, 51.9 µM (inactive); in the experiment on NCI-H226, 17.7 µM (inactive); in the experiment with KM12, 47.4 µM (inactive); with PC-3, 37.8 µM (inactive); with U-251 it was 39.4 µM (inactive).

Consider `Cn1c(N)cc(=O)nc1N`, for which the GI50 with TK-10, with OVCAR-8, in the experiment on ACHN, in the experiment with 786-0, with IGROV-1 and in the experiment on NCI-H522 was > 100 µM (inactive) throughout. Further, the GI50 with NCI/ADR-RES, with MCF7, with HL-60, in the experiment with Malme-3M, in the experiment on LOX IMVI and with SNB-75 was > 100 µM (inactive) in each case. Moreover, the GI50 in the experiment with HOP-62, in the experiment with NCI-H226, with KM12, in the experiment on PC-3, in the experiment with A498 and with U-251 was > 100 µM (inactive) each time.

`O=C(/C(=C(/Br)I)c1ccccc1)c1ccccc1`: the GI50 in the experiment on UACC-257 was 17.8 µM (inactive); in the experiment with TK-10, 27.2 µM (inactive); in the experiment on OVCAR-8, 23.5 µM (inactive); with ACHN, 29.4 µM (inactive); with HOP-92, 18.8 µM (inactive); in the experiment with 786-0, 18.2 µM (inactive). Besides, the GI50 is 29.7 µM (inactive) in the experiment on IGROV-1; 16.8 µM (inactive) in the experiment with NCI/ADR-RES; 30.9 µM (inactive) with MCF7; 28 µM (inactive) in the experiment on HL-60; 14.5 µM (inactive) in the experiment with Malme-3M; 13.9 µM (inactive) in the experiment with LOX IMVI. The GI50 with SNB-75 is 26.3 µM (inactive); in the experiment with NCI-H226 it was 19.3 µM (inactive); in the experiment on KM12, 19.5 µM (inactive); in the experiment on PC-3, 28.6 µM (inactive); in the experiment with A498 it was 15 µM (inactive); in the experiment with U-251, 25.8 µM (inactive).

As for `CN(C)CCOc1ccc(/C(=C(/CCCl)c2ccccc2)c2ccccc2)cc1` [TOREMIFENE CITRATE], the GI50 with UACC-257 is 20.3 µM (inactive); in the experiment with TK-10, 15.3 µM (inactive); in the experiment on OVCAR-8 it was 17.7 µM (inactive); in the experiment with ACHN, 17.5 µM (inactive); with HOP-92 it was 3.67 µM (inactive); in the experiment on 786-0, 17.8 µM (inactive). For the same molecule, the GI50 was 21.4 µM (inactive) in the experiment with IGROV-1; 16.5 µM (inactive) in the experiment with NCI-H522; 13.7 µM (inactive) in the experiment on NCI/ADR-RES; 1.58 µM (inactive) in the experiment with MCF7; 5.13 µM (inactive) with HL-60; 17.9 µM (inactive) in the experiment with Malme-3M. Also, the GI50 with LOX IMVI was 18.1 µM (inactive); in the experiment on SNB-75, 11.9 µM (inactive); in the experiment with HOP-62 it was 15.5 µM (inactive); with NCI-H226, 19.1 µM (inactive); with KM12 it was 17.7 µM (inactive); with PC-3, 16.4 µM (inactive). Moreover, the GI50 in the experiment with U-251 is 17.8 µM (inactive).

The term GI50 denotes the concentration giving 50% growth inhibition.
